In patent publication US20060069132A1, “Azolecarboxamide herbicides” (priority 2004, published 2006):
Where two headings read alike, the source gives them in different places.

How the values were obtained:
blackgrass = assay: Test B postemergence herbicide test; format: in vivo, Alopecurus myosuroides; conditions: Alopecurus myosuroides, post-emergence, 336 h, postemergence, visual rating, scale 0 (no effect) to 100 (complete control), read-out: Blackgrass plant response rating
Method in brief: (§1)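 Greenhouse test; postemergence application to plants at 1–4 leaves (2–18 cm); paddy species at 2 leaves; evaluated visually vs controls at 13–15 days; scale 0–100 (100 = complete control).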

barnyardgrass [1] = assay: Test B flooded paddy test; format: in vivo, Echinochloa crus-galli; conditions: Echinochloa crus-galli, 336 h, 1000 g ai/ha, scale 0 to 100 (0 no effect, 100 complete control), read-out: Barnyardgrass plant response rating
Method in brief: as §1

cocklebur = assay: Test B pre-/postemergence herbicide test; format: in vivo, Xanthium strumarium; conditions: Xanthium strumarium; for pest or weed control at 125 g/ha: 125 g ai/ha; for pest or weed control at 500 g/ha: 500 g ai/ha
Method in brief: (§2)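 Greenhouse pot assay with simultaneous preemergence (treated seed) and postemergence (2–18 cm seedlings) applications of surfactant-containing, non-phytotoxic solvent formulations. Response scored visually 13–15 days later on a 0–100 scale, 100 meaning complete control.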

corn = assay: Test B pre-/postemergence herbicide test; format: in vivo, Zea mays; conditions: Zea mays; for plant injury at 125 g/ha: 125 g ai/ha
Method in brief: (§3)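 Response was scored visually 13 to 15 days after treatment against untreated greenhouse controls, 0 meaning no effect and 100 complete control. Formulations (solvent mixture plus surfactant) went onto soil after planting, onto foliage of 1- to 4-leaf plants, and onto 2-leaf plants in a flooded paddy set including rice and barnyardgrass.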

ducksalad = assay: Test B flooded paddy test; format: in vivo, Heteranthera limosa; conditions: Heteranthera limosa, 336 h, 1000 g ai/ha, scale 0 to 100 (0 no effect, 100 complete control), read-out: Ducksalad plant response rating
Method in brief: as §1

[2] = tested on: small flower umbrella sedge; assay: Test B flooded paddy test; format: in vivo, Cyperus difformis; conditions: Cyperus difformis, 336 h, 1000 g ai/ha, scale 0 to 100 (0 no effect, 100 complete control), read-out: Sedge, Umbrella plant response rating
Method in brief: as §1

large crabgrass = assay: Test B pre-/postemergence herbicide test; format: in vivo, Digitaria sanguinalis; conditions: Digitaria sanguinalis; for pest or weed control at 125 g/ha: 125 g ai/ha; for pest or weed control at 500 g/ha: 500 g ai/ha
Method in brief: as §3

wild oat = assay: Test B postemergence herbicide test; format: in vivo, Avena fatua; conditions: Avena fatua, post-emergence, 336 h, postemergence, read-out: Oat, Wild plant response rating
Method in brief: (§4)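 Scale 0–100: zero equals no visible effect, 100 complete control, judged by eye relative to controls. Timing: 13 to 15 days in greenhouse post-treatment. Growth stage at spraying: two leaves (paddy) or one to four leaves, 2–18 cm (postemergence).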

Surinam grass = assay: Test B pre-/postemergence herbicide test; format: in vivo, Urochloa decumbens; conditions: Urochloa decumbens; for pest or weed control at 125 g/ha: 125 g ai/ha; for pest or weed control at 500 g/ha: 500 g ai/ha
Method in brief: as §3

wheat = assay: Test B postemergence herbicide test; format: in vivo, Triticum aestivum; conditions: Triticum aestivum, post-emergence, 336 h, postemergence, read-out: Wheat plant response rating
Method in brief: as §4

giant foxtail = assay: Test B pre-/postemergence herbicide test; format: in vivo, Setaria faberi; conditions: Setaria faberi, 336 h; for pest or weed control at 125 g/ha: 125 g ai/ha; for pest or weed control at 500 g/ha: 500 g ai/ha
Method in brief: as §3

barnyardgrass [3] = assay: Test B pre-/postemergence herbicide test; format: in vivo, Echinochloa crus-galli; conditions: Echinochloa crus-galli; for pest or weed control at 125 g/ha: 125 g ai/ha; for pest or weed control at 500 g/ha: 500 g ai/ha
Method in brief: as §2

pigweed = assay: Test B pre-/postemergence herbicide test; format: in vivo, Amaranthus retroflexus; conditions: Amaranthus retroflexus, post-emergence, 336 h, postemergence, read-out: Pigweed plant response rating
Method in brief: as §3

rice = assay: Test B flooded paddy test; format: in vivo, Oryza sativa; conditions: Oryza sativa, 336 h, 1000 g ai/ha, scale 0 to 100 (0 no effect, 100 complete control), read-out: Rice plant response rating
Method in brief: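 Postemergence plants were sprayed with formulated test chemicals at 2 to 18 cm height (1- to 4-leaf stage); paddy species were grown to the 2-leaf stage. After 13 to 15 days in a greenhouse, injury was rated visually against untreated controls on a 0–100 scale (0 = no effect, 100 = complete control).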

velvetleaf = assay: Test B pre-/postemergence herbicide test; format: in vivo, Abutilon theophrasti; conditions: Abutilon theophrasti, 336 h; for pest or weed control at 125 g/ha: 125 g ai/ha; for pest or weed control at 500 g/ha: 500 g ai/ha
Method in brief: as §3

[4] = post-emergence, postemergence, visual rating, scale 0 (no effect) to 100 (complete control), read-out: Cocklebur plant response rating
[5] = 125 g ai/ha, visual rating, scale 0 (no effect) to 100 (complete control)
[6] = 500 g ai/ha, scale 0 to 100, 0 is no effect, 100 is complete control
[7] = post-emergence, postemergence, visual rating, scale 0 (no effect) to 100 (complete control), read-out: Barnyardgrass plant response rating

CCOC(=O)c1ccc(F)c(NC(=O)C2CC(C(C)(C)C)=NN2CC)c1 (stereo not shown) [Compound 267, ethyl 3-[[[3-(1,1-dimethylethyl)-1-ethyl-4,5-dihydro-1H-pyrazol-5-yl]carbonyl]amino]-4-fluorobenzoate]
pest or weed control at 125 g/ha (blackgrass; 125 g ai/ha): 20%
pest or weed control at 500 g/ha (blackgrass; 500 g ai/ha): 40%
pest or weed control at 1000 g/ha (barnyardgrass [1]): 60%
pest or weed control at 125 g/ha (cocklebur; [4]): 30%
pest or weed control at 500 g/ha (cocklebur; [4]): 90%
pest or weed control at 125 g/ha (cocklebur; pre-emergence, 0 = no effect, 100 = complete control, read-out: Cocklebur plant response rating (0 to 100 scale)): 0%
pest or weed control at 500 g/ha (cocklebur; pre-emergence, visual rating, 0 = no effect, 100 = complete control, read-out: Plant response rating, Cocklebur): 0%
plant injury at 125 g/ha (corn; post-emergence, postemergence, visual rating, scale 0 (no effect) to 100 (complete control), read-out: Corn plant response rating): 20%
plant injury at 500 g/ha (corn; post-emergence, postemergence, 500 g ai/ha, scale 0 to 100, 0 is no effect, 100 is complete control, read-out: Corn plant response rating): 40%
plant injury at 125 g/ha (corn; pre-emergence, 0 = no effect, 100 = complete control, read-out: Corn plant response rating (0 to 100 scale)): 0%
Corn plant response rating (crop injury, 0 = no effect, 100 = complete kill) at 500 g/ha (corn; pre-emergence, 500 g ai/ha, visual rating, 0 = no effect, 100 = complete control): 20%
pest or weed control at 1000 g/ha (ducksalad): 0%
pest or weed control at 1000 g/ha [2]: 70%
pest or weed control at 125 g/ha (large crabgrass; post-emergence, postemergence, visual rating, scale 0 (no effect) to 100 (complete control), read-out: Crabgrass, Large plant response rating): 20%
pest or weed control at 500 g/ha (large crabgrass; post-emergence, postemergence, scale 0 to 100, 0 is no effect, 100 is complete control, read-out: Crabgrass, Large plant response rating): 40%
pest or weed control at 125 g/ha (large crabgrass; pre-emergence, 0 = no effect, 100 = complete control, read-out: Crabgrass, Large plant response rating (0 to 100 scale)): 40%
pest or weed control at 500 g/ha (large crabgrass; pre-emergence, visual rating, 0 = no effect, 100 = complete control, read-out: Plant response rating, Crabgrass, Large): 100%
pest or weed control at 125 g/ha (wild oat; [5]): 30%
pest or weed control at 500 g/ha (wild oat; [6]): 40%
pest or weed control at 125 g/ha (Surinam grass; post-emergence, postemergence, visual rating, scale 0 (no effect) to 100 (complete control), read-out: Surinam Grass plant response rating): 30%
pest or weed control at 500 g/ha (Surinam grass; post-emergence, postemergence, scale 0 to 100, 0 is no effect, 100 is complete control, read-out: Surinam Grass plant response rating): 50%
pest or weed control at 125 g/ha (Surinam grass; pre-emergence, 0 = no effect, 100 = complete control, read-out: Surinam Grass plant response rating (0 to 100 scale)): 10%
pest or weed control at 500 g/ha (Surinam grass; pre-emergence, visual rating, 0 = no effect, 100 = complete control, read-out: Plant response rating, Surinam Grass): 50%
plant injury at 125 g/ha (wheat; [5]): 20%
plant injury at 500 g/ha (wheat; [6]): 30%
pest or weed control at 125 g/ha (giant foxtail; post-emergence, postemergence, visual rating, scale 0 (no effect) to 100 (complete control), read-out: Foxtail, Giant plant response rating): 40%
pest or weed control at 500 g/ha (giant foxtail; post-emergence, postemergence, scale 0 to 100, 0 is no effect, 100 is complete control, read-out: Foxtail, Giant plant response rating): 50%
pest or weed control at 125 g/ha (giant foxtail; pre-emergence, 0 = no effect, 100 = complete control, read-out: Foxtail, Giant plant response rating (0 to 100 scale)): 30%
pest or weed control at 500 g/ha (giant foxtail; pre-emergence, visual rating, 0 = no effect, 100 = complete control, read-out: Plant response rating, Foxtail, Giant): 80%
pest or weed control at 125 g/ha (barnyardgrass [3]; [7]): 40%
pest or weed control at 500 g/ha (barnyardgrass [3]; [7]): 90%
pest or weed control at 125 g/ha (barnyardgrass [3]; pre-emergence, 0 = no effect, 100 = complete control, read-out: Barnyardgrass plant response rating (0 to 100 scale)): 20%
pest or weed control at 500 g/ha (barnyardgrass [3]; pre-emergence, visual rating, 0 = no effect, 100 = complete control, read-out: Plant response rating, Barnyardgrass): 70%
pest or weed control at 125 g/ha (pigweed; [5]): 60%
pest or weed control at 500 g/ha (pigweed; [6]): 90%
plant injury at 1000 g/ha (rice): 70%
pest or weed control at 125 g/ha (velvetleaf; post-emergence, postemergence, visual rating, scale 0 (no effect) to 100 (complete control), read-out: Velvetleaf plant response rating): 50%
pest or weed control at 500 g/ha (velvetleaf; post-emergence, postemergence, scale 0 to 100, 0 is no effect, 100 is complete control, read-out: Velvetleaf plant response rating): 70%
pest or weed control at 125 g/ha (velvetleaf; pre-emergence, 0 = no effect, 100 = complete control, read-out: Velvetleaf plant response rating (0 to 100 scale)): 20%
pest or weed control at 500 g/ha (velvetleaf; pre-emergence, visual rating, 0 = no effect, 100 = complete control, read-out: Plant response rating, Velvetleaf): 50%
